Measurements: the supplement of paper PMC10307832

Experiments:
Assay in all cases: relative viability (nuclei count vs DMSO), 5 days (fraction); higher = more cells survive
AZD8055 = compound: COc1ccc(-c2ccc3c(N4CCOC[C@@H]4C)nc(N4CCOC[C@@H]4C)nc3n2)cc1CO [AZD8055]
Summary of the method: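 Lung cancer cell lines received five library-drug doses (not always all listed) spaced by √10, pinned on vehicle-anchored 1536-well plates after an overnight stay at 37 °C. Five days later, with no medium change, nuclei were Hoechst-stained, imaged at 4× and counted with MetaXpress. Viability is treated-well nuclei relative to vehicle-well nuclei, as a median across plates. Passing plates had control CV below 25% and at least one doubling.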

AZD8055 + Luminespib = compound: COc1ccc(-c2ccc3c(N4CCOC[C@@H]4C)nc(N4CCOC[C@@H]4C)nc3n2)cc1CO [AZD8055] + CCNC(=O)c1noc(-c2cc(C(C)C)c(O)cc2O)c1-c1ccc(CN2CCOCC2)cc1 [Luminespib] (partner 0.01 µM)
Summary of the method: (§1)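 Lung cancer cell lines were pin-tool dosed in 1536-well plates on the day after seeding, with either a lone drug or a fixed anchor-drug dose plus five library-drug doses (not always all listed) in √10 steps. Nuclei were counted on 4× images after 5 days. Relative viability is the ratio of treated-well to vehicle-well nuclei counts, with each value a median of duplicate plates.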

AZD8055 + Foretinib = compound: COc1ccc(-c2ccc3c(N4CCOC[C@@H]4C)nc(N4CCOC[C@@H]4C)nc3n2)cc1CO [AZD8055] + COc1cc2c(Oc3ccc(NC(=O)C4(C(=O)Nc5ccc(F)cc5)CC4)cc3F)ccnc2cc1OCCCN1CCOCC1 [Foretinib] (partner 0.25 µM)
Summary of the method: as §1

AZD8055 + OSI-027 = compound: COc1ccc(-c2ccc3c(N4CCOC[C@@H]4C)nc(N4CCOC[C@@H]4C)nc3n2)cc1CO [AZD8055] + COc1cccc2cc(-c3nc([C@H]4CC[C@H](C(=O)O)CC4)n4ncnc(N)c34)[nH]c12 [OSI-027] (partner 0.5 µM)
Summary of the method: as §1

AZD8055 + Tozasertib = compound: COc1ccc(-c2ccc3c(N4CCOC[C@@H]4C)nc(N4CCOC[C@@H]4C)nc3n2)cc1CO [AZD8055] + Cc1cc(Nc2cc(N3CCN(C)CC3)nc(Sc3ccc(NC(=O)C4CC4)cc3)n2)n[nH]1 [Tozasertib] (partner 0.1 µM)
Summary of the method: as §1

AZD8055 + Dasatinib = compound: COc1ccc(-c2ccc3c(N4CCOC[C@@H]4C)nc(N4CCOC[C@@H]4C)nc3n2)cc1CO [AZD8055] + Cc1nc(Nc2ncc(C(=O)Nc3c(C)cccc3Cl)s2)cc(N2CCN(CCO)CC2)n1 [Dasatinib] (partner 0.075 µM)
Summary of the method: as §1

AZD8055 + Phenformin = compound: COc1ccc(-c2ccc3c(N4CCOC[C@@H]4C)nc(N4CCOC[C@@H]4C)nc3n2)cc1CO [AZD8055] + N=C(N)NC(=N)NCCc1ccccc1 [Phenformin] (partner 250 µM)
Summary of the method: as §1

AZD8055 + Trametinib = compound: COc1ccc(-c2ccc3c(N4CCOC[C@@H]4C)nc(N4CCOC[C@@H]4C)nc3n2)cc1CO [AZD8055] + CC(=O)Nc1cccc(-n2c(=O)n(C3CC3)c(=O)c3c(Nc4ccc(I)cc4F)n(C)c(=O)c(C)c32)c1 [Trametinib] (partner 0.02 µM)
Summary of the method: as §1

AZD8055 + Palbociclib = compound: COc1ccc(-c2ccc3c(N4CCOC[C@@H]4C)nc(N4CCOC[C@@H]4C)nc3n2)cc1CO [AZD8055] + CC(=O)c1c(C)c2cnc(Nc3ccc(N4CCNCC4)cn3)nc2n(C2CCCC2)c1=O [Palbociclib] (partner 0.5 µM)
Summary of the method: as §1

AZD8055 + AZD7762 = compound: COc1ccc(-c2ccc3c(N4CCOC[C@@H]4C)nc(N4CCOC[C@@H]4C)nc3n2)cc1CO [AZD8055] + NC(=O)Nc1cc(-c2cccc(F)c2)sc1C(=O)N[C@H]1CCCNC1 [AZD7762] (partner 0.2 µM)
Summary of the method: as §1

AZD8055 + Pemetrexed = compound: COc1ccc(-c2ccc3c(N4CCOC[C@@H]4C)nc(N4CCOC[C@@H]4C)nc3n2)cc1CO [AZD8055] + Nc1nc2[nH]cc(CCc3ccc(C(=O)N[C@@H](CCC(=O)O)C(=O)O)cc3)c2c(=O)[nH]1 [Pemetrexed] (partner 0.2 µM)
Summary of the method: as §1

AZD8055 + Decitabine = compound: COc1ccc(-c2ccc3c(N4CCOC[C@@H]4C)nc(N4CCOC[C@@H]4C)nc3n2)cc1CO [AZD8055] + Nc1ncn([C@H]2C[C@H](O)[C@@H](CO)O2)c(=O)n1 [Decitabine] (partner 2 µM)
Summary of the method: as §1

AZD8055 + Vorinostat = compound: COc1ccc(-c2ccc3c(N4CCOC[C@@H]4C)nc(N4CCOC[C@@H]4C)nc3n2)cc1CO [AZD8055] + O=C(CCCCCCC(=O)Nc1ccccc1)NO [Vorinostat] (partner 1 µM)
Summary of the method: as §1

AZD8055 + Olaparib = compound: COc1ccc(-c2ccc3c(N4CCOC[C@@H]4C)nc(N4CCOC[C@@H]4C)nc3n2)cc1CO [AZD8055] + O=C(c1cc(Cc2n[nH]c(=O)c3ccccc23)ccc1F)N1CCN(C(=O)C2CC2)CC1 [Olaparib] (partner 8 µM)
Summary of the method: as §1

NCI-H1623
relative viability (AZD8055; 0.01 µM): 0.916
relative viability (AZD8055; 0.03162 µM): 1.03
relative viability (AZD8055; 0.1 µM): 0.79
relative viability (AZD8055; 0.3162 µM): 0.469
relative viability (AZD8055; 1 µM): 0.36
relative viability (AZD8055 + Luminespib; first compound 0.01 µM): 0.483
relative viability (AZD8055 + Luminespib; first compound 0.03162 µM): 0.434
relative viability (AZD8055 + Luminespib; first compound 0.1 µM): 0.343
relative viability (AZD8055 + Luminespib; first compound 0.3162 µM): 0.347
relative viability (AZD8055 + Luminespib; first compound 1 µM): 0.278
relative viability (AZD8055 + Foretinib; first compound 0.01 µM): 0.885
relative viability (AZD8055 + Foretinib; first compound 0.03162 µM): 1.03
relative viability (AZD8055 + Foretinib; first compound 0.1 µM): 0.578
relative viability (AZD8055 + Foretinib; first compound 0.3162 µM): 0.438
relative viability (AZD8055 + Foretinib; first compound 1 µM): 0.381
relative viability (AZD8055 + OSI-027; first compound 0.01 µM): 0.419
relative viability (AZD8055 + OSI-027; first compound 0.03162 µM): 0.521
relative viability (AZD8055 + OSI-027; first compound 0.1 µM): 0.425
relative viability (AZD8055 + OSI-027; first compound 0.3162 µM): 0.411
relative viability (AZD8055 + OSI-027; first compound 1 µM): 0.379
relative viability (AZD8055 + Tozasertib; first compound 0.01 µM): 0.46
relative viability (AZD8055 + Tozasertib; first compound 0.03162 µM): 0.47
relative viability (AZD8055 + Tozasertib; first compound 0.1 µM): 0.397
relative viability (AZD8055 + Tozasertib; first compound 0.3162 µM): 0.254
relative viability (AZD8055 + Tozasertib; first compound 1 µM): 0.288
relative viability (AZD8055 + Dasatinib; first compound 0.01 µM): 0.545
relative viability (AZD8055 + Dasatinib; first compound 0.03162 µM): 0.584
relative viability (AZD8055 + Dasatinib; first compound 0.1 µM): 0.412
relative viability (AZD8055 + Dasatinib; first compound 0.3162 µM): 0.29
relative viability (AZD8055 + Dasatinib; first compound 1 µM): 0.234
relative viability (AZD8055 + Phenformin; first compound 0.01 µM): 0.586
relative viability (AZD8055 + Phenformin; first compound 0.03162 µM): 0.597
relative viability (AZD8055 + Phenformin; first compound 0.1 µM): 0.521
relative viability (AZD8055 + Phenformin; first compound 0.3162 µM): 0.324
relative viability (AZD8055 + Phenformin; first compound 1 µM): 0.316

SW 900
relative viability (AZD8055; 0.01 µM): 0.827
relative viability (AZD8055; 0.03162 µM): 0.783
relative viability (AZD8055; 0.1 µM): 0.704
relative viability (AZD8055; 0.3162 µM): 0.513
relative viability (AZD8055; 1 µM): 0.236
relative viability (AZD8055 + Trametinib; first compound 0.01 µM): 0.897
relative viability (AZD8055 + Trametinib; first compound 0.03162 µM): 0.783
relative viability (AZD8055 + Trametinib; first compound 0.1 µM): 0.622
relative viability (AZD8055 + Trametinib; first compound 0.3162 µM): 0.374
relative viability (AZD8055 + Trametinib; first compound 1 µM): 0.505
relative viability (AZD8055 + Palbociclib; first compound 0.01 µM): 0.546
relative viability (AZD8055 + Palbociclib; first compound 0.03162 µM): 0.559
relative viability (AZD8055 + Palbociclib; first compound 0.1 µM): 0.474
relative viability (AZD8055 + Palbociclib; first compound 0.3162 µM): 0.261
relative viability (AZD8055 + Palbociclib; first compound 1 µM): 0.289
relative viability (AZD8055 + Luminespib; first compound 0.01 µM): 0.172
relative viability (AZD8055 + Luminespib; first compound 0.03162 µM): 0.182
relative viability (AZD8055 + Luminespib; first compound 0.1 µM): 0.17
relative viability (AZD8055 + Luminespib; first compound 0.3162 µM): 0.177
relative viability (AZD8055 + Luminespib; first compound 1 µM): 0.16
relative viability (AZD8055 + Foretinib; first compound 0.01 µM): 1.03
relative viability (AZD8055 + Foretinib; first compound 0.03162 µM): 0.86
relative viability (AZD8055 + Foretinib; first compound 0.1 µM): 0.647
relative viability (AZD8055 + Foretinib; first compound 0.3162 µM): 0.654
relative viability (AZD8055 + Foretinib; first compound 1 µM): 0.409
relative viability (AZD8055 + OSI-027; first compound 0.01 µM): 0.592
relative viability (AZD8055 + OSI-027; first compound 0.03162 µM): 0.602
relative viability (AZD8055 + OSI-027; first compound 0.1 µM): 0.536
relative viability (AZD8055 + OSI-027; first compound 0.3162 µM): 0.311
relative viability (AZD8055 + OSI-027; first compound 1 µM): 0.196
relative viability (AZD8055 + Tozasertib; first compound 0.01 µM): 0.567
relative viability (AZD8055 + Tozasertib; first compound 0.03162 µM): 0.747
relative viability (AZD8055 + Tozasertib; first compound 0.1 µM): 0.425
relative viability (AZD8055 + Tozasertib; first compound 0.3162 µM): 0.285
relative viability (AZD8055 + Tozasertib; first compound 1 µM): 0.34
relative viability (AZD8055 + Dasatinib; first compound 0.01 µM): 0.622
relative viability (AZD8055 + Dasatinib; first compound 0.03162 µM): 0.691
relative viability (AZD8055 + Dasatinib; first compound 0.1 µM): 0.535
relative viability (AZD8055 + Dasatinib; first compound 0.3162 µM): 0.177
relative viability (AZD8055 + Dasatinib; first compound 1 µM): 0.184
relative viability (AZD8055 + Phenformin; first compound 0.01 µM): 0.568
relative viability (AZD8055 + Phenformin; first compound 0.03162 µM): 0.343
relative viability (AZD8055 + Phenformin; first compound 0.1 µM): 0.489
relative viability (AZD8055 + Phenformin; first compound 0.3162 µM): 0.368
relative viability (AZD8055 + Phenformin; first compound 1 µM): 0.169
relative viability (AZD8055 + AZD7762; first compound 0.01 µM): 0.538
relative viability (AZD8055 + AZD7762; first compound 0.03162 µM): 1.01
relative viability (AZD8055 + AZD7762; first compound 0.1 µM): 0.54
relative viability (AZD8055 + AZD7762; first compound 0.3162 µM): 0.324
relative viability (AZD8055 + AZD7762; first compound 1 µM): 0.268
relative viability (AZD8055 + Pemetrexed; first compound 0.01 µM): 0.493
relative viability (AZD8055 + Pemetrexed; first compound 0.03162 µM): 0.469
relative viability (AZD8055 + Pemetrexed; first compound 0.1 µM): 0.512
relative viability (AZD8055 + Pemetrexed; first compound 0.3162 µM): 0.353
relative viability (AZD8055 + Pemetrexed; first compound 1 µM): 0.241
relative viability (AZD8055 + Decitabine; first compound 0.01 µM): 0.459
relative viability (AZD8055 + Decitabine; first compound 0.03162 µM): 0.519
relative viability (AZD8055 + Decitabine; first compound 0.1 µM): 0.472
relative viability (AZD8055 + Decitabine; first compound 0.3162 µM): 0.492
relative viability (AZD8055 + Decitabine; first compound 1 µM): 0.47
relative viability (AZD8055 + Vorinostat; first compound 0.01 µM): 0.461
relative viability (AZD8055 + Vorinostat; first compound 0.03162 µM): 0.499
relative viability (AZD8055 + Vorinostat; first compound 0.1 µM): 0.538
relative viability (AZD8055 + Vorinostat; first compound 0.3162 µM): 0.325
relative viability (AZD8055 + Vorinostat; first compound 1 µM): 0.265
relative viability (AZD8055 + Olaparib; first compound 0.01 µM): 0.812
relative viability (AZD8055 + Olaparib; first compound 0.03162 µM): 0.952
relative viability (AZD8055 + Olaparib; first compound 0.1 µM): 0.719
relative viability (AZD8055 + Olaparib; first compound 0.3162 µM): 0.48
relative viability (AZD8055 + Olaparib; first compound 1 µM): 0.502
